Laboratory results reported in publication PMC12590356, “Novel pyrrolo[2,1-a]isoquinoline aryl ketones attenuate carbon nanotube-induced acute lung injury through NF-κB pathway inhibition” (RSC Advances, 2025).
Entries after “also recorded” stand apart in the source; their conditions may differ.

Assays:
Format in all cases: in vivo, C57BL/6 mice
NF-κB p65 = assay: Immunofluorescence of NF-κB p65 in lung tissues; details: SWCNT-induced ALI mice, 50 mg/kg once a day for 3 d
Excerpt: To elucidate the mechanism underlying the modulation of NF-κB pathway, we employed immunofluorescence techniques to scrutinize the spatiotemporal dynamics of NF-κB p65 within lung tissues. The canonical NF-κB signaling cascade involves IκB kinase (IKK)-mediated phosphorylation of IκBα, triggering its ubiquitination and proteasomal degradation. This process releases the NF-κB p65/p50 heterodimer, enabling its nuclear translocation and subsequent initiation of pro-inflammatory mediator transcription.[35,36] […] This finding implies a pharmacological activity that is contingent upon the structural characteristics of the compounds.
(§1) Based on the results of the previous in vitro experiments, 3g and 3k were chosen for animal experiments. 3g was dissolved in 5% DMSO and 3k was dissolved in 0.5% sodium carboxymethyl cellulose (CMC-Na). Male C57BL/6 mice were randomly divided into four groups of ten animals each: CON, single-walled carbon nanotubes (SWCNT) model, 3k (50 mg kg^−1) + SWCNT, 3g (50 mg kg^−1) + SWCNT. The SWCNT model group was administered a one-time tracheal drip of 50 μL of SWCNT suspension containing 40 μg of SWCNT (approximately 1.86 mg per kg body weight) per mouse to model ALI. […]
Mouse lung tissues were isolated and stored in a 4% paraformaldehyde solution. […] Representative images of each sample were acquired (magnification ×200) and analyzed using the ImageJ software. […]

SWCNT-induced ALI mice = assay: Complete blood count in SWCNT-induced ALI mice; details: 50 mg/kg once a day for 3 d, p < 0.01 vs. model
Excerpt: To explore the immunomodulatory effects of 3g and 3k, we conducted an analysis of systemic inflammatory responses in mice with SWCNT-induced ALI by employing hematological profiling. During inflammatory responses, immune activation induces cytokine production and modulates leukocyte trafficking dynamics. […] Mechanistically, the proliferation of LY is initiated in response to inflammatory stimuli as a means to combat infection. […] Consequently, this leads to a diminished requirement for the continuous mobilization of LY. These findings highlight the anti-inflammatory and immunomodulatory properties of pyrrolo[2,1-a]isoquinoline derivatives in mitigating SWCNT-induced pulmonary injury.
Based on the results of the previous in vitro experiments, 3g and 3k were chosen for animal experiments. 3g was dissolved in 5% DMSO and 3k was dissolved in 0.5% sodium carboxymethyl cellulose (CMC-Na). Male C57BL/6 mice were randomly divided into four groups of ten animals each: CON, single-walled carbon nanotubes (SWCNT) model, 3k (50 mg kg^−1) + SWCNT, 3g (50 mg kg^−1) + SWCNT. […]
Blood samples were extracted from the eyeballs of each experimental mouse cohort to obtain comprehensive whole blood specimens. Complete blood count (CBC) and differential leukocyte count (DLC) were determined using an automatic blood cell analyzer (Mindray CAL 6000, China).

[1] = tested on: phosphorylated IκB and p65; assay: Western blot of NF-κB pathway in lung tissues; details: SWCNT-induced ALI mice, 50 mg/kg once a day for 3 d
Excerpt: The expression levels of phosphorylated IκB and p65 were meticulously examined. To further delve into and evaluate the impact of compounds 3g and 3k on the NF-κB signaling pathway within SWCNT-induced ALI murine models, western blotting analysis was used to comprehensively assess the activation status of the NF-κB pathway in lung tissues.
Collectively, novel pyrrolo[2,1-a]isoquinoline aryl ketones represent promising anti-inflammatory candidates for SWCNT-induced pulmonary injury, functioning through NF-κB pathway regulation.
as §1
Lung tissue samples were collected from each mouse. […] The protein concentration was accurately determined using the BCA method. […] ECL chemiluminescent reagent was used to visualize the protein bands, and the gray values of the bands were analyzed using ImageJ software.

| SMILES | p65 fluorescence intensity and nuclear translocation in lung tissue (NF-κB p65; 50 mg/kg) | Circulating lymphocyte (LY) count (SWCNT-induced ALI mice) | Phosphorylated IκB and p65 levels in lung tissue [1] | p65 fluorescence intensity and nuclear translocation in lung tissue (NF-κB p65) |
| --- | --- | --- | --- | --- |
| O=C(c1ccc(F)cc1)c1ccc2c3ccccc3ccn12 [3g] | reduced fluorescence intensity and suppressed nuclear translocation of p65; also recorded: significantly enhanced efficacy in inhibiting he nuclear translocation of p65 | significantly reduced circulating LY populations | substantially suppressed these phosphorylation events | – |
| Cc1ccccc1C(=O)c1ccc2c3ccccc3ccn12 [3k] | – | significantly reduced circulating LY populations | substantially suppressed these phosphorylation events | reduced fluorescence intensity and suppressed nuclear translocation of p65 |
